Results as given in paper PMC6010064, “Discovery of curcumin inspired sulfonamide derivatives as a new class of carbonic anhydrase isoforms I, II, IX, and XII inhibitors” (Journal of Enzyme Inhibition and Medicinal Chemistry, 2017).
Read-outs that look alike come from different tables or passages of the source.

How the values were obtained:
Experiment in all cases: stopped-flow CO2 hydrase assay
Assay type in all cases: biochemical
hCA I = target: T1, hCA I (Homo sapiens, UniProt P00915)
T1 construct: gene CA1; recombinant, obtained in-house as reported earlier
From the text: stopped-flow CO2 hydrase assay on hCA I

hCA XII = target: T2, hCA XII (Homo sapiens, UniProt O43570)
T2 construct: gene CA12; recombinant, obtained in-house as reported earlier
From the text: stopped-flow CO2 hydrase assay on hCA XII

hCA II = target: T3, hCA II (Homo sapiens, UniProt P00918)
T3 construct: gene CA2; recombinant, obtained in-house as reported earlier
From the text: stopped-flow CO2 hydrase assay on hCA II

hCA IX = target: T4, hCA IX (Homo sapiens, UniProt Q16790)
T4 construct: gene CA9; recombinant, obtained in-house as reported earlier
From the text: stopped-flow CO2 hydrase assay on hCA IX

[1] = pH […] Hepes […], […] Na2SO4, CO2 substrate, […] min preincubation at room temperature

T2 sequence (O43570 25-354): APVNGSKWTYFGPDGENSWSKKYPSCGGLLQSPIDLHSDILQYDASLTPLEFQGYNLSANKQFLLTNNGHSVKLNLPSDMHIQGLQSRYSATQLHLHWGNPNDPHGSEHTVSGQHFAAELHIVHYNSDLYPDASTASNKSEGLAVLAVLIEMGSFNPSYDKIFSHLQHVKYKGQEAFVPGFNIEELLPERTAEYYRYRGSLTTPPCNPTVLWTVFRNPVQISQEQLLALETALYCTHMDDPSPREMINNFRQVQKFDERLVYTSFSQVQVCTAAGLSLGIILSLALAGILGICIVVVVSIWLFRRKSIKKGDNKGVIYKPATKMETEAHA
T1 sequence (P00915 2-261): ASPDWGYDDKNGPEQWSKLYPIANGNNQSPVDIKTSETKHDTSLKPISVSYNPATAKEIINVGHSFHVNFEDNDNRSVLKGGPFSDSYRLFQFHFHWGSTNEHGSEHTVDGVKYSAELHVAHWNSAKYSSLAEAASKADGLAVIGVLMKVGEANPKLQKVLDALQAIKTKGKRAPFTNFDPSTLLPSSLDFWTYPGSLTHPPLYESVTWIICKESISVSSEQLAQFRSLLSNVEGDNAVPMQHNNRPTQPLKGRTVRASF

Ki (hCA I)	Ki (hCA XII)	Ki (hCA II)	Ki (hCA IX)	Ki (hCA II; [1])	Ki (hCA I; [1])	Structure (SMILES)
904 nM	7.4 nM	0.87 nM	2.4 nM	–	–	COc1cc(OC)c(/C=C/C(=O)/C=C/c2ccc(S(N)(=O)=O)cc2)c(OC)c1 [5g, 4-((1E,4E)-3-oxo-5-(2,4,6-trimethoxyphenyl)penta-1,4-dien-1-yl)benzenesulfonamide]
595 nM	25 nM	8.8 nM	7.8 nM	–	–	COc1cc(/C=C/C(=O)/C=C/c2ccc(S(N)(=O)=O)cc2)cc(OC)c1OC [5h, 4-((1E,4E)-3-oxo-5-(3,4,5-trimethoxyphenyl)penta-1,4-dien-1-yl)benzenesulfonamide]
417 nM	6.1 nM	7.9 nM	2.3 nM	–	–	CC(C)Oc1ccc(/C=C/C(=O)/C=C/c2ccc(S(N)(=O)=O)cc2)cc1 [5a, 4-((1E,4E)-5-(4-isopropoxyphenyl)-3-oxopenta-1,4-dien-1-yl)benzenesulfonamide]
704 nM	8.1 nM	–	8.4 nM	0.89 nM	–	COc1ccc(OC)c(/C=C/C(=O)/C=C/c2ccc(S(N)(=O)=O)cc2)c1 [5d, 4-((1E,4E)-5-(2,5-dimethoxyphenyl)-3-oxopenta-1,4-dien-1-yl)benzenesulfonamide]
–	71.8 nM	3 nM	2.4 nM	–	192 nM	COc1ccc(/C=C/C(=O)/C=C/c2ccc(S(N)(=O)=O)cc2)c(OC)c1OC [5f, 4-((1E,4E)-3-oxo-5-(2,3,4-trimethoxyphenyl)penta-1,4-dien-1-yl)benzenesulfonamide]
295 nM	52.2 nM	–	2.3 nM	0.75 nM	–	COc1ccc(/C=C/C(=O)/C=C/c2ccc(S(N)(=O)=O)cc2)cc1OC [5e, 4-((1E,4E)-5-(3,4-dimethoxyphenyl)-3-oxopenta-1,4-dien-1-yl)benzenesulfonamide]
848 nM	7.4 nM	4.7 nM	7.5 nM	–	–	COc1ccc(/C=C/C(=O)/C=C/c2ccc(S(N)(=O)=O)cc2)c(OC)c1 [5c, 4-((1E,4E)-5-(2,4-dimethoxyphenyl)-3-oxopenta-1,4-dien-1-yl)benzenesulfonamide]
373 nM	31.1 nM	8.1 nM	87.3 nM	–	–	NS(=O)(=O)c1ccc(/C=C/C(=O)/C=C/c2ccc(Cl)cc2)cc1 [5i, 4-((1E,4E)-5-(4-chlorophenyl)-3-oxopenta-1,4-dien-1-yl)benzenesulfonamide]
246 nM	68 nM	8.2 nM	61 nM	–	–	COc1ccc(/C=C/C(=O)/C=C/c2ccc(S(N)(=O)=O)cc2)c(F)c1 [5j, 4-((1E,4E)-5-(2-fluoro-4-methoxyphenyl)-3-oxopenta-1,4-dien-1-yl)benzenesulfonamide]
286 nM	6.3 nM	2.1 nM	8.6 nM	–	–	COc1ccc(/C=C/C(=O)/C=C/c2ccc(S(N)(=O)=O)cc2)cc1 [5b, 4-((1E,4E)-5-(4-methoxyphenyl)-3-oxopenta-1,4-dien-1-yl)benzenesulfonamide]
